{
  "source": "patent US6861416B2",
  "about": "“Oxazinones and methods for their use and synthesis” (Chirologix Pharmaceuticals, Inc., priority 2001, dated 2005)",
  "key": {"Micrococcus luteus": {"test_system": "Micrococcus luteus", "assay": "Filter disc bioassay on agar plates seeded with Micrococcus luteus", "assay_type": "cell-based", "settings": "for Zone Size: agar plate", "experimental": "Samples of 2-carboxymethyl-5-hydroxy-1,2-oxazin-3-one and penicillin were applied to a filter disc in the amounts indicated in Table 1, below. The discs were applied to agar plates seeded with Micrococcus luteus, and the plates were incubated over night at 37° C.\nSamples of 2-[2-carboxypropyl]-5-hydroxy-1,2-oxazin-3-one and desacetoxycephalosporin G were applied to a filter disc in the amounts indicated in Table 2, below. The discs were applied to agar plates seeded with Micrococcus luteus, and the plates were incubated overnight at 37° C."}},
  "data": [
    {"smiles": "CC1=C(C(=O)O)N2C(=O)[C@@H](NC(=O)Cc3ccccc3)[C@H]2SC1", "note": "[desacetoxycephalosporin G, reference compound]", "values": [
      {"measurement": "Zone Size", "setting": "Micrococcus luteus; 2.5 micrograms on filter disc, incubated overnight at 37° C.", "result": 2.5, "unit": "cm"}
    ]},
    {"smiles": "C[C@H](C(=O)OC(C)(C)C)N1OC[C@@H](O)[C@@H](O)C1=O", "note": "[8b, (αR,4R,5R)-2-(α-tert-Butoxycarbonylethyl)-4,5-dihydroxy-1,2-oxazinan-3-one]", "values": [
      {"measurement": "melting point", "result": "93 to 94", "unit": "°C"}
    ]},
    {"smiles": "CC(CN1OC=C(O)CC1=O)C(=O)O", "note": "(stereo not drawn) [2-[2-carboxypropyl]-5-hydroxy-1,2-oxazin-3-one]", "values": [
      {"measurement": "Zone Size", "setting": "Micrococcus luteus; 12.0 micrograms on filter disc, incubated overnight at 37° C.", "result": 2.0, "unit": "cm"},
      {"measurement": "antibacterial activity, times the activity of 2-carboxymethyl-5-hydroxy-1,2-oxazin-3-one", "setting": "Micrococcus luteus; relative to 2-carboxymethyl-5-hydroxy-1,2-oxazin-3-one, from Tables 1 and 2", "result": "approximately 50 times"}
    ]},
    {"smiles": "O=C(O)CN1OC=C(O)CC1=O", "note": "[2-carboxymethyl-5-hydroxy-1,2-oxazin-3-one]", "values": [
      {"measurement": "Zone Size", "setting": "Micrococcus luteus; 100 micrograms on filter disc, incubated over night at 37° C.", "result": 1.1, "unit": "cm"},
      {"measurement": "Zone Size", "setting": "Micrococcus luteus; 1000 micrograms on filter disc, incubated over night at 37° C.", "result": 2.0, "unit": "cm"},
      {"measurement": "antibacterial activity (in words)", "setting": "Micrococcus luteus; judged from Tables 1 and 2", "result": "weak antibacterial activity"},
      {"measurement": "antibacterial activity, times less than that of penicillin", "setting": "Micrococcus luteus; relative to penicillin, from Tables 1 and 2", "result": "at least 1000 times"}
    ]},
    {"smiles": "CC1(C)S[C@@H]2[C@H](NC(=O)Cc3ccccc3)C(=O)N2[C@H]1C(=O)O", "note": "[Penicillin G, reference compound]", "values": [
      {"measurement": "Zone Size", "setting": "Micrococcus luteus; 0.1 micrograms on filter disc, incubated over night at 37° C.", "result": 1.6, "unit": "cm"}
    ]}
  ]
}
